{"source": "paper PMC11278568", "about": "“Implementation of Spore Display in Paenibacillus polymyxa with Different Hydrolytic Enzymes” (Microorganisms, 2024)", "key": {"Lip3": {"biological_target": "T1, Lip3 (Paenibacillus polymyxa, UniProt A0ABX2ZB39)", "T1 construct": "gene A7312_04500; fused via GGGGGSGGGGG linker to P. polymyxa CotE spore-coat anchor; gene amplified from DSM 365 genome (CP141264); printed NF024107.3 is a family model", "T1 sequence (A0ABX2ZB39 1-335)": "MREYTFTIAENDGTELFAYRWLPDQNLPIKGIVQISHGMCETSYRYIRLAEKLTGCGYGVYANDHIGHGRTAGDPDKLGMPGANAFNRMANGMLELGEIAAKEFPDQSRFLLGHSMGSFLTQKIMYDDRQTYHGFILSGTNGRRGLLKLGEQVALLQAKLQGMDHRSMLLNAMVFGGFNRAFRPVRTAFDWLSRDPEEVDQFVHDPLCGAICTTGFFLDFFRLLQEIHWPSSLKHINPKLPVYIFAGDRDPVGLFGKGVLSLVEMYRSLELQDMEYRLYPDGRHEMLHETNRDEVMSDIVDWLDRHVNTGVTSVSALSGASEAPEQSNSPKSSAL", "test": "p-nitrophenol release, […] nm, […] h", "format": "cell-based", "conditions": "enzyme displayed on spores (immobilised), OD600 1; 1 mM substrate; 50 mM Tris-HCl pH 7.5; 4-70 °C"}, "[1]": {"test": "p-nitrophenol release, […] nm, […] h", "format": "cell-based, Paenibacillus polymyxa", "conditions": "enzyme displayed on spores (immobilised), OD600 1; 1 mM substrate; 50 mM Tris-HCl pH 7.5; 4-70 °C; side activity of the synthase"}}}
{"smiles": "CCCCCCCC(=O)Oc1ccc([N+](=O)[O-])cc1", "note": "[C8, 4-Nitrophenyl-octanoate]", "values": [{"measurement": "p-nitrophenol release, 410 nm, 1 h", "setting": "Lip3", "result": "The displayed Lip3 showed higher hydrolysis activity with rising temperature"}, {"measurement": "p-nitrophenol release, 410 nm, 1 h", "setting": "[1]", "result": "this enzyme showed hydrolytic activity for p-nitrophenyl caprylate (pNPC, C8)"}]}
